Tested on: HBV
Assay: HBV replication inhibition assay (BDNA assay)
Format: cell-based
Conditions: Hepatitis B virus, HepG2.2.15, 144 h, HepG2.2.15 cells, incubated with compound for 6 days, encapsidated HBV DNA from supernatant detected by branched DNA QuantiGene assay
Procedure: HBV replication inhibition by the disclosed compounds were determined in cells infected or transfected with HBV or cells with stably integrated HBV, such as HepG2.2.15 cells (Sells et al. 1987). In this example, HepG2.2.15 cells were maintained in cell culture medium containing 10% fetal bovine serum (FBS), Geneticin, L-glutamine, penicillin and streptomycin. HepG2.2.15 cells were seeded in 96-well plates at a density of 40,000 cells/well and were treated with serially diluted compounds at a final DMSO concentration of 0.5% either alone or in combination by adding drugs in a checker box format. Cells were incubated with compounds for three days, after which medium was removed and fresh medium containing compounds was added to cells and incubated for another three days. At day 6, supernatant was removed and treated with DNase at 37° C. for 60 minutes, followed by enzyme inactivation at 75° C. for 15 minutes. Encapsidated HBV DNA was released from the virions and covalently linked HBV polymerase by incubating in lysis buffer (Affymetrix QS0010) containing 2.5 μg proteinase K at 50° C. for 40 minutes. HBV DNA was denatured by addition of 0.2 M NaOH and detected using a branched DNA (BDNA) QuantiGene assay kit according to manufacturer recommendation (Affymetrix). HBV DNA levels were also quantified using qPCR, based on amplification of encapsidated HBV DNA extraction with QuickExtraction Solution (Epicentre Biotechnologies) and amplification of HBV DNA using HBV specific PCR probes that can hybridize to HBV DNA and a fluorescently labeled probe for quantitation. In addition, cell viability of HepG2.2.15 cells incubated with test compounds alone or in combination was determined by using CellTitre-Glo reagent according to the manufacturer protocol (Promega). The mean background signal from wells containing only culture medium was subtracted from all other samples, and percent inhibition at each compound concentration was calculated by normalizing to signals from HepG2.2.15 cells treated with 0.5% DMSO using equation E1.
where DMSOave is the mean signal calculated from the wells that were treated with DMSO control (0% inhibition control) and Xi is the signal measured from the individual wells. EC50 values, effective concentrations that achieved 50% inhibitory effect, were determined by non-linear fitting using Graphpad Prism software (San Diego, Calif.) and equation E2.
where Y represents percent inhibition values and X represents the logarithm of compound concentrations.
Selected disclosed compounds were assayed in the HBV replication assay (BDNA assay), as described above, and a representative group of these active compounds is shown in Table 3.

Row | Structure (SMILES) | EC50 [nM]
1 | C[C@@H]1Cc2nn3c(c2CN1C(=O)Nc1ccc(F)c(C(F)(F)F)c1)-c1nocc1CCC3 [Example 19, (10R)—N-(4-Fluoro-3-(trifluoromethyl)phenyl)-10-methyl-5,6,9,10-tetrahydro-4H-isoxazolo[3,4-c]pyrido[4′,3′:3,4]pyrazolo[1,5-a]azepine-11(12H)-carboxamide] | 27
2 | O=C(Nc1ccc(F)c(C(F)(F)F)c1)N1CCc2nn3c(c2C1)-c1nocc1CC(CO)C3 (stereo not shown) [Example 4, N-(4-Fluoro-3-(trifluoromethyl)phenyl)-5-(hydroxymethyl)-5,6,9,10-tetrahydro-4H-isoxazolo[3,4-c]pyrido[4′,3′:3,4]pyrazolo[1,5-a]azepine-11(12H)-carboxamide] | 57
3 | O=C(Nc1ccc(F)c(C(F)(F)F)c1)N1CCc2nn3c(c2C1)-c1ncccc1CCC3 [Example 28, N-(4-Fluoro-3-(trifluoromethyl)phenyl)-6,7,10,11-tetrahydro-5H-pyrido[2,3-c]pyrido[4′,3′:3,4]pyrazolo[1,5-a]azepine-12(13H)-carboxamide] | 1800
4 | O=C(Nc1ccc(F)c(C(F)(F)F)c1)N1CCc2nn3c(c2C1)-c1nocc1CC(COCC(F)F)C3 (single isomer, unassigned) [Example 6, (5S*)-5-((2,2-Difluoroethoxy)methyl)-N-(4-fluoro-3-(trifluoromethyl)phenyl)-5,6,9,10-tetrahydro-4H-isoxazolo[3,4-c]pyrido[4′,3′:3,4]pyrazolo[1,5-a]azepine-11(12H)-carboxamide] | 45
5 | C[C@@H]1Cc2nn3c(c2CN1C(=O)Nc1ccc(F)c(C(F)(F)F)c1)-c1oncc1CCC3 [Example 15, (10R)—N-(4-Fluoro-3-(trifluoromethyl)phenyl)-10-methyl-5,6,9,10-tetrahydro-4H-isoxazolo[5,4-c]pyrido[4′,3′:3,4]pyrazolo[1,5-a]azepine-11(12H)-carboxamide] | 83
6 | O=C(Nc1ccc(F)c(Cl)c1)N1CCc2nn3c(c2C1)-c1nncn1CCC3 [Example 20, N-(3-Chloro-4-fluorophenyl)-6,7,10,11-tetrahydro-5H-pyrido[4′,3′:3,4]-pyrazolo[1,5-a][1,2,4]triazolo[3,4-c][1,4]diazepine-12(13H)-carboxamide] | 2000
7 | O=C(Nc1ccc(F)c(C(F)(F)F)c1)N1CCn2nc3c(c2C1)-c1oncc1CCC3 [Example 34] | 440
8 | O=C(Nc1ccc(F)c(C(F)(F)F)c1)N1CCn2nc3c(c2C1)-c1nocc1CCC3 [Example 36, N-(4-Fluoro-3-(trifluoromethyl)phenyl)-5,6,9,10-tetrahydro-4H-isoxazolo[3″,4″:3′,4′]cyclohepta[1′,2′:3,4]pyrazolo[1,5-a]pyrazine-11(12H)-carboxamide] | 180
9 | N#Cc1cc(NC(=O)N2CCn3nc4c(c3C2)-c2nocc2CCC4)ccc1F [Example 35, N-(3-Cyano-4-fluorophenyl)-5,6,9,10-tetrahydro-4H-isoxazolo[3″,4″:3′,4′]-cyclohepta[1′,2′:3,4]pyrazolo[1,5-a]pyrazine-11(12H)-carboxamide] | 170
10 | C=C1Cc2conc2-c2c3c(nn2C1)CCN(C(=O)Nc1ccc(F)c(C(F)(F)F)c1)C3 [Example 2, N-(4-Fluoro-3-(trifluoromethyl)phenyl)-5-methylene-5,6,9,10-tetrahydro-4H-isoxazolo[3,4-c]pyrido[4′,3′:3,4]pyrazolo[1,5-a]azepine-11(12H)-carboxamide] | 75
11 | CC1Cc2conc2-c2c3c(nn2C1)CCN(C(=O)Nc1ccc(F)c(C(F)(F)F)c1)C3 (stereo not shown) [Example 12, N-(4-Fluoro-3-(trifluoromethyl)phenyl)-5-methyl-5,6,9,10-tetrahydro-4H-isoxazolo[3,4-c]pyrido[4′,3′:3,4]pyrazolo[1,5-a]azepine-11(12H)-carboxamide] | 52
12 | N#Cc1cc(NC(=O)N2CCc3nn4c(c3C2)-c2ncccc2CCC4)ccc1F [Example 27, N-(3-Cyano-4-fluorophenyl)-6,7,10,11-tetrahydro-5H-pyrido[2,3-c]pyrido[4′,3′:3,4]pyrazolo[1,5-a]azepine-12(13H)-carboxamide] | 170
13 | N#Cc1cc(NC(=O)N2CCc3nn4c(c3C2)-c2nocc2CC(O)C4)ccc1F (stereo not shown) [Example 11, N-(3-Cyano-4-fluorophenyl)-5-hydroxy-5,6,9,10-tetrahydro-4H-isoxazolo[3,4-c]pyrido[4′,3′:3,4]pyrazolo[1,5-a]azepine-11(12H)-carboxamide] | 43
14 | C[C@@H]1Cc2nn3c(c2CN1C(=O)Nc1ccc(F)c(C#N)c1)-c1nocc1CCC3 [Example 18, (10R)—N-(3-Cyano-4-fluorophenyl)-10-methyl-5,6,9,10-tetrahydro-4H-isoxazolo[3,4-c]pyrido[4′,3′:3,4]pyrazolo[1,5-a]azepine-11(12H)-carboxamide] | 15
15 | N#Cc1cc(NC(=O)N2CCc3nn4c(c3C2)-c2n[nH]cc2CCC4)ccc1F [Example 26, N-(3-Cyano-4-fluorophenyl)-4,5,6,9,10,12-hexahydropyrazolo[3,4-c]pyrido[4′,3′:3,4]pyrazolo[1,5-a]azepine-11(2H)-carboxamide] | 23
16 | C=C1Cc2cnoc2-c2c3c(nn2C1)CCN(C(=O)Nc1ccc(F)c(C(F)(F)F)c1)C3 [Example 10, N-(4-Fluoro-3-(trifluoromethyl)phenyl)-5-methylene-5,6,9,10-tetrahydro-4H-isoxazolo[5,4-c]pyrido[4′,3′:3,4]pyrazolo[1,5-a]azepine-11(12H)-carboxamide] | 350
17 | Cn1cc2c(n1)-c1c3c(nn1CCC2)CCN(C(=O)Nc1ccc(F)c(Cl)c1)C3 [Example 29, N-(3-Chloro-4-fluorophenyl)-2-methyl-4,5,6,9,10,12-hexahydropyrazolo[3,4-c]pyrido[4′,3′:3,4]pyrazolo[1,5-a]azepine-11(2H)-carboxamide] | 3100
18 | C[C@@H]1Cc2nn3c(c2CN1C(=O)Nc1ccc(F)c(C#N)c1)-c1oncc1CCC3 [Example 14, (10R)—N-(3-Cyano-4-fluorophenyl)-10-methyl-5,6,9,10-tetrahydro-4H-isoxazolo[5,4-c]pyrido[4′,3′:3,4]pyrazolo[1,5-a]azepine-11(12H)-carboxamide] | 59
19 | O=C(Nc1ccc(F)c(Cl)c1)N1CCc2nn3c(c2C1)-c1oncc1CCC3 [Example 32, N-(3-Chloro-4-fluorophenyl)-5,6,9,10-tetrahydro-4H-isoxazolo[5,4-c]pyrido[4′,3′:3,4]pyrazolo[1,5-a]azepine-11(12H)-carboxamide] | 12
20 | C[C@@H]1Cc2nn3c(c2CN1C(=O)Nc1ccc(F)c(C#N)c1)-c1ncccc1CCC3 [Example 16, (11R)—N-(3-Cyano-4-fluorophenyl)-11-methyl-6,7,10,11-tetrahydro-5H-pyrido[2,3-c]pyrido[4′,3′:3,4]pyrazolo[1,5-a]azepine-12(13H)-carboxamide] | 330
21 | N#Cc1cc(NC(=O)N2CCn3nc4c(c3C2)-c2oncc2CCC4)ccc1F [Example 33, N-(3-Cyano-4-fluorophenyl)-5,6,9,10-tetrahydro-4H-isoxazolo[5″,4″:3′,4′]-cyclohepta[1′,2′:3,4]pyrazolo[1,5-a]pyrazine-11(12H)-carboxamide] | 790
22 | Cc1nnc2n1CCCn1nc3c(c1-2)CN(C(=O)Nc1ccc(F)c(Cl)c1)CC3 [Example 21, N-(3-Chloro-4-fluorophenyl)-3-methyl-6,7,10,11-tetrahydro-5H-pyrido-[4′,3′:3,4]pyrazolo[1,5-a][1,2,4]triazolo[3,4-c][1,4]diazepine-12(13H)-carboxamide] | 2700
23 | C=C1Cc2cnoc2-c2c3c(nn2C1)CCN(C(=O)Nc1ccc(F)c(C#N)c1)C3 [Example 9, N-(3-Cyano-4-fluorophenyl)-5-methylene-5,6,9,10-tetrahydro-4H-isoxazolo[5,4-c]pyrido[4′,3′:3,4]pyrazolo[1,5-a]azepine-11(12H)-carboxamide] | 800
24 | O=C(Nc1ccc(F)c(Cl)c1)N1CCc2nn3c(c2C1)-c1n[nH]cc1CCC3 [Example 25, N-(3-Chloro-4-fluorophenyl)-4,5,6,9,10,12-hexahydropyrazolo[3,4-c]pyrido[4′,3′:3,4]pyrazolo[1,5-a]azepine-11(2H)-carboxamide] | 28
25 | C[C@@H]1Cc2nn3c(c2CN1C(=O)Nc1ccc(F)c(Cl)c1)-c1nncn1CCC3 [Example 22, (R)—N-(3-Chloro-4-fluorophenyl)-11-methyl-6,7,10,11-tetrahydro-5H-pyrido[4′,3′:3,4]pyrazolo[1,5-a][1,2,4]triazolo[3,4-c][1,4]diazepine-12(13H)-carboxamide] | > 4000
